We go through five molecules from US9416115B2, “Fused heterocyclic compounds as ion channel modulators” (Gilead Sciences, Inc., priority 2013, dated 2016).

Assay [1] deals with wild-type human cardiac sodium channel, hNav1.5 (Homo sapiens, UniProt Q14524). The assay can be described thus: Late INa screening assay (QPatch whole cell patch clamp, Tefluthrin-induced late current). It is filed as cell-based. The conditions noted are these: 1 uM; HEK293 hNav1.5; percent block of late INa. An outline of the steps:
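HEK293 cells stably expressing hNav1.5 without beta subunits were whole-cell patch clamped at 23-25 °C, stepping from −120 to −20 mV for 250 ms at 0.1 Hz. Late current (240–265 ms) was induced with 10 μM Tefluthrin, and compounds were added typically at 0.3 or 1 μM. Percent block was taken against 0 Na baseline with rundown correction.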

The next assay concerns the target T1, hNaV1.2 (SCN2A) (Homo sapiens, UniProt Q99250).
T1 construct: expressed in transfected cells
The assay can be described thus: Use-dependent inhibition of the CNS Nav1.2 sodium channel. Type of assay: cell-based. As to conditions: use-dependent block, 25 Hz, pulse 20, read-out: Nav1.2 UDB 25 Hz 10 uM. An outline of the steps: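 Use-dependent block of human Nav1.2 was measured by automated whole-cell patch clamp (QPatch) in HEK-293 cells stably expressing hNaV1.2 with SCN1B and SCN2B. From a holding potential of −120 mV, a train of 20 pulses to 0 mV (20 ms, 25 Hz) was applied. Peak current at pulse 20 was normalized to the first pulse, and percent inhibition was calculated relative to compound-free recordings.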

T1 sequence (Q99250 whole entry): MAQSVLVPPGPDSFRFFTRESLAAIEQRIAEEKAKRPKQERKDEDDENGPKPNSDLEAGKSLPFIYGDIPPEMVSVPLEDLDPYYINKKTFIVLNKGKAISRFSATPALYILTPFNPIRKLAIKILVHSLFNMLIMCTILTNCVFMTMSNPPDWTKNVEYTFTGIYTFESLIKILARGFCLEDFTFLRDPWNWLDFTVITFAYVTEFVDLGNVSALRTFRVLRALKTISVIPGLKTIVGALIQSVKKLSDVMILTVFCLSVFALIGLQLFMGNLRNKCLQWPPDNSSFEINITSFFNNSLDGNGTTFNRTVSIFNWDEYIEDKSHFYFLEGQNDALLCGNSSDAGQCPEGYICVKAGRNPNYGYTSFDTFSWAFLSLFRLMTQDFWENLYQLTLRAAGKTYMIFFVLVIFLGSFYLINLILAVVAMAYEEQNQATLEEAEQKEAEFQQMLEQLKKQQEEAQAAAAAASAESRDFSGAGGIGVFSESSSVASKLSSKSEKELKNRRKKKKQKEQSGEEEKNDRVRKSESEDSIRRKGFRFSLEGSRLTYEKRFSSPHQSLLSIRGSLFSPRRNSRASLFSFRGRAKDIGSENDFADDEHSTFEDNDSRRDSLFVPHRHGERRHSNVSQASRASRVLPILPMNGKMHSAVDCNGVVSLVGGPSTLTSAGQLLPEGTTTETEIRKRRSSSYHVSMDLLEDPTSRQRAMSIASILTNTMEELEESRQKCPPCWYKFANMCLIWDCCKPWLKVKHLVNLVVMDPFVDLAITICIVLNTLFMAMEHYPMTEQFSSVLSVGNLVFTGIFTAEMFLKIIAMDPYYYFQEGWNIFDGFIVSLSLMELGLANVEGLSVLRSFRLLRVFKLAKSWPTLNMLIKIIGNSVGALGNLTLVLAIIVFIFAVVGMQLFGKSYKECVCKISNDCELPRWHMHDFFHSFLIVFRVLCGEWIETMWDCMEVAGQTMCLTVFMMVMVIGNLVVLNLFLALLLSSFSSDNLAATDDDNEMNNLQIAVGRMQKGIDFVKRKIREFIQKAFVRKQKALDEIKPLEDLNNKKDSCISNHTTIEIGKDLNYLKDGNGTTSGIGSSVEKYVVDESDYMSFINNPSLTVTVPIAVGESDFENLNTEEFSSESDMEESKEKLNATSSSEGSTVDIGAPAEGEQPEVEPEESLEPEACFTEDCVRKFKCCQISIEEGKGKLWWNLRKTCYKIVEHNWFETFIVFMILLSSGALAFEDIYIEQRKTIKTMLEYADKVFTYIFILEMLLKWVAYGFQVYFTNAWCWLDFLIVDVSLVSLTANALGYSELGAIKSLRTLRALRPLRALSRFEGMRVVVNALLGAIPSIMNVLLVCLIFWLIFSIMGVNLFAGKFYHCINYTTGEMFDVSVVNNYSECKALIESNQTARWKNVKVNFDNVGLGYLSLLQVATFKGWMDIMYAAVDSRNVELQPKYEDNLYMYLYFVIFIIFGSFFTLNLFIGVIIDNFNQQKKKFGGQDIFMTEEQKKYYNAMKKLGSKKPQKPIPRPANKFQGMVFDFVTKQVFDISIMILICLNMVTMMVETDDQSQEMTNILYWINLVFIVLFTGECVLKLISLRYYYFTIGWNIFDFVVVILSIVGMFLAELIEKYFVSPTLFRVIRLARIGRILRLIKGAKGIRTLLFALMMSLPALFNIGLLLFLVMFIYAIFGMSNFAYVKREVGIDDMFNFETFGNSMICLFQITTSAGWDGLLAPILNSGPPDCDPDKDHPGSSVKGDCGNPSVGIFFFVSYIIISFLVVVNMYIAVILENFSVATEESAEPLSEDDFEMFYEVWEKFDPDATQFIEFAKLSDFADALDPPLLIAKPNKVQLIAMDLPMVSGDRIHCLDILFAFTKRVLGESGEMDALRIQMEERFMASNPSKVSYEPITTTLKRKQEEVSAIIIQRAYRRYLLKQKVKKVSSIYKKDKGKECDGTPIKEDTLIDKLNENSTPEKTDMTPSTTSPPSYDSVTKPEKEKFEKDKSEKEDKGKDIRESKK
T1 sequence (Q07699 19-218 partner): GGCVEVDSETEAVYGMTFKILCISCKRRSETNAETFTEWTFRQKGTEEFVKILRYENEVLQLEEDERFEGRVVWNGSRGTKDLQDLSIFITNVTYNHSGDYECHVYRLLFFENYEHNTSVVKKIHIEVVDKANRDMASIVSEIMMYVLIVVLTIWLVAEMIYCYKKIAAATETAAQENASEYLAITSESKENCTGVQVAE
T1 sequence (O60939 30-215 partner): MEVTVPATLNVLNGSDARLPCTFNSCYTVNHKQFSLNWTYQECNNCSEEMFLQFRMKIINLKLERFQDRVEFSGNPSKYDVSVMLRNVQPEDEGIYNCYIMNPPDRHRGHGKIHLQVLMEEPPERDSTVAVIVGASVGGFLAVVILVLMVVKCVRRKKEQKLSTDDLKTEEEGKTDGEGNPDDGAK
Sequence of wild-type human cardiac sodium channel, hNav1.5 (Q14524 whole entry): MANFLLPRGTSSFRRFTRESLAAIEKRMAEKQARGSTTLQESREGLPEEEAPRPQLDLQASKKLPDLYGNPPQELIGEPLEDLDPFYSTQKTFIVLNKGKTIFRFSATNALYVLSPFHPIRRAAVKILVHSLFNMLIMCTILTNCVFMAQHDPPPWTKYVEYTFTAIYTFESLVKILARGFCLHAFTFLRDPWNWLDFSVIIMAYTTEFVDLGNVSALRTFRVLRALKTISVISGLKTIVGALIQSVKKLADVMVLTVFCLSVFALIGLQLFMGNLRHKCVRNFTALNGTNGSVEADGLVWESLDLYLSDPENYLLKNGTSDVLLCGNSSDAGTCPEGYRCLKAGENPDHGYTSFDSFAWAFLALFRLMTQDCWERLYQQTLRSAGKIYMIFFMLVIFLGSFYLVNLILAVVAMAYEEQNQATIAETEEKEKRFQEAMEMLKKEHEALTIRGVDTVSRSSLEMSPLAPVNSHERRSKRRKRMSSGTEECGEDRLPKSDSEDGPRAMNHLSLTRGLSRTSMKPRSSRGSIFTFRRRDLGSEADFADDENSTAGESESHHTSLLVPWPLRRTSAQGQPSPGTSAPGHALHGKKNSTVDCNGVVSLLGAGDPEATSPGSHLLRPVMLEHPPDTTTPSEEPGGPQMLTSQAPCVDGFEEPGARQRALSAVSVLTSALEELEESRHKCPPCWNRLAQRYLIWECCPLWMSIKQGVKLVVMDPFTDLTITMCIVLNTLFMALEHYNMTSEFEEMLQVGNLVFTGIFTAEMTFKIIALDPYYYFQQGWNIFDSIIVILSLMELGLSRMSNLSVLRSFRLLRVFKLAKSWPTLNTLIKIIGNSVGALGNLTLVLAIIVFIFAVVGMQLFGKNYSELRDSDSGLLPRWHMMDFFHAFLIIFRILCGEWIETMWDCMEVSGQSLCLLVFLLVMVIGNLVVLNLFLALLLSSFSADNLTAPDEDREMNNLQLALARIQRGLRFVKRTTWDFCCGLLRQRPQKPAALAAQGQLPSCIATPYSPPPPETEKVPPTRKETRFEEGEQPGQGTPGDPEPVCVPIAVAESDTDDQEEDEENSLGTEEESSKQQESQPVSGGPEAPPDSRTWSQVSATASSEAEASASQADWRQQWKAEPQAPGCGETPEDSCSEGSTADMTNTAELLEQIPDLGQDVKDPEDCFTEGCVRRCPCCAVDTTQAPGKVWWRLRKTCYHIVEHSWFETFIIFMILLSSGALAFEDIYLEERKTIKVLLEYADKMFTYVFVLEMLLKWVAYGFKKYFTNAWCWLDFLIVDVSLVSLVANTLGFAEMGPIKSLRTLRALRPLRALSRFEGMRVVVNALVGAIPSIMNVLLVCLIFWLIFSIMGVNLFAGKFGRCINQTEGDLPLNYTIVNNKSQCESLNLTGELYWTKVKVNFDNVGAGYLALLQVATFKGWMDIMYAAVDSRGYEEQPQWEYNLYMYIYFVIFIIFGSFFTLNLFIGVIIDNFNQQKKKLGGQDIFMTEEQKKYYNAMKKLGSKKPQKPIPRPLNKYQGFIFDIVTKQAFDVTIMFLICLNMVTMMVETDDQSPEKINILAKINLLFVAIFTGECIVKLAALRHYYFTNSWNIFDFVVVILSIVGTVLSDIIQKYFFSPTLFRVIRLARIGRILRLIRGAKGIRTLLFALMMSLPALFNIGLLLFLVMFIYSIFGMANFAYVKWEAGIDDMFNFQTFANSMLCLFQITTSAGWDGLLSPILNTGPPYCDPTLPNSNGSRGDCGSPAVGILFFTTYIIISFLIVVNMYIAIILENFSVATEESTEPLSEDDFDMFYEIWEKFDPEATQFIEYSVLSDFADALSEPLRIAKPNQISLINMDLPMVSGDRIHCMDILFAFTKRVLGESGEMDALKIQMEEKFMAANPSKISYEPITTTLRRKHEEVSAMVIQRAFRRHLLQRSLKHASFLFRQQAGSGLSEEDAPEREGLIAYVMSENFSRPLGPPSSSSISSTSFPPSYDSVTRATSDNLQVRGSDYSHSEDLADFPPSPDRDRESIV

In assay [1], `CC1(COc2noc3ccc(-c4ccc(OC(F)(F)F)cc4)cc23)COC1` [Example 92, 3-((3-methyloxetan-3-yl)methoxy)-5-(4-(trifluoromethoxy)phenyl)benzo[d]isoxazole] displayed an inhibition at 1 µM of 36.3%. For the same molecule, at hNaV1.2 (SCN2A), the inhibition at 10 µM was less than 5%.

In the case of `Cc1cccnc1COc1noc2ccc(-c3ccc(OC(F)(F)F)cc3)cc12` [Example 93, 3-((3-methylpyridin-2-yl)methoxy)-5-(4-(trifluoromethoxy)phenyl)benzo[d]isoxazole], the inhibition at 1 µM in assay [1] was 45.1%. Besides, the inhibition at 10 µM on hNaV1.2 (SCN2A) is less than 5%.

For the molecule `Cc1cccc(COc2noc3ccc(-c4ccc(OC(F)(F)F)cc4)cc23)n1` [Example 95, 3-((6-methylpyridin-2-yl)methoxy)-5-(4-(trifluoromethoxy)phenyl)benzo[d]isoxazole], in assay [1], the inhibition at 1 µM amounted to 51.7%. For the same molecule, on hNaV1.2 (SCN2A), the inhibition at 10 µM is less than 5%.

As for `OCC1(COc2noc3ccc(-c4ccc(OC(F)(F)F)cc4)cc23)COC1` [Example 97, (3-(((5-(4-(trifluoromethoxy)phenyl)benzo[d]isoxazol-3-yl)oxy)methyl)oxetan-3-yl)methanol], in assay [1], the inhibition at 1 µM was 39%. Further, the inhibition at 10 µM at hNaV1.2 (SCN2A) worked out at 34.3%.

For `CC(Oc1noc2ccc(-c3ccc(OC(F)(F)F)cc3)cc12)c1ccccn1` (stereo not shown) [Example 98, 3-(1-(pyridin-2-yl)ethoxy)-5-(4-(trifluoromethoxy)phenyl)benzo[d]isoxazole], the inhibition at 1 µM in assay [1] was 38.7%. Also, on hNaV1.2 (SCN2A), the inhibition at 10 µM is less than 5%.
